Data from ChEMBL document CHEMBL3872240, “Simple N,N-dimethyl phenylsulfonamides show potent anticonvulsant effect in two standard epilepsy models” (Bioorg Med Chem Lett, 2017).
Activity calls are given as the source filed them. The calls are words filed in the database; no cut-off is given here.

Assays:
Mus musculus [1] = test: Neurotoxicity in Carworth Farm1 mouse assessed as somnolence up to 100 mg/kg, ip; type: toxicity, organism-based; conditions: in vivo
Mus musculus [2] = test: Neurotoxicity in Carworth Farm1 mouse assessed as sedation up to 100 mg/kg, ip; type: toxicity, organism-based; conditions: in vivo
Mus musculus [3] = test: Neurotoxicity in Carworth Farm1 mouse assessed as muscle relaxation up to 100 mg/kg, ip; type: toxicity, organism-based; conditions: in vivo
Mus musculus [4] = test: Anticonvulsant activity in Carworth Farm1 mouse assessed as protection against maximal electroshock-induced seizures at 100 mg/kg, ip administered 30 mins prior to 60-Hz current induction; type: functional, organism-based
Mus musculus [5] = test: Anticonvulsant activity in ip dosed Carworth Farm1 mouse assessed as protection against maximal electroshock-induced seizures administered 30 mins prior to 60-Hz current induction; type: functional
Mus musculus [6] = test: Anticonvulsant activity in ip dosed Carworth Farm1 mouse assessed as protection against subcutaneous pentylenetetrazole-induced seizures after 30 mins; type: functional; conditions: Carworth Farm1, 0.5 h
Mus musculus [7] = test: Anticonvulsant activity in Carworth Farm1 mouse assessed as protection against maximal electroshock-induced seizures at 25 mg/kg, ip administered 30 mins prior to 60-Hz current induction; type: functional, organism-based
Mus musculus [8] = test: Anticonvulsant activity in Carworth Farm1 mouse assessed as protection against maximal electroshock-induced seizures at 50 mg/kg, ip administered 30 mins prior to 60-Hz current induction; type: functional, organism-based
Mus musculus [9] = test: Anticonvulsant activity in Carworth Farm1 mouse assessed as protection against subcutaneous pentylenetetrazole-induced seizures at 100 mg/kg, ip after 30 mins; type: functional, organism-based
Mus musculus [10] = test: Anticonvulsant activity in Carworth Farm1 mouse assessed as protection against subcutaneous pentylenetetrazole-induced seizures at 400 mg/kg, ip after 30 mins; type: functional, organism-based
[11] = Metabolic stability in rat liver microsomes assessed as amount of parent compound remaining after 30 mins; type: ADME; conditions: read-out: Stability
Mus musculus [12] = test: Anticonvulsant activity in Carworth Farm1 mouse assessed as protection against maximal electroshock-induced seizures at 50 to 100 mg/kg, ip administered 30 mins prior to 60-Hz current induction; type: functional, organism-based
Mus musculus [13] = test: Anticonvulsant activity in Carworth Farm1 mouse assessed as protection against maximal electroshock-induced seizures at 400 mg/kg, ip administered 30 mins prior to 60-Hz current induction; type: functional, organism-based
Mus musculus [14] = test: Anticonvulsant activity in Carworth Farm1 mouse assessed as protection against maximal electroshock-induced seizures at 100 to 400 mg/kg, ip administered 30 mins prior to 60-Hz current induction; type: functional, organism-based

| Compound | Activity (Mus musculus [1]) | Activity (Mus musculus [2]) | Activity (Mus musculus [3]) | Activity (Mus musculus [4]) | Activity (Mus musculus [8]) | other results |
| --- | --- | --- | --- | --- | --- | --- |
| Cc1cccc(S(=O)(=O)N(C)C)c1 | Non-Toxic | Non-Toxic | Non-Toxic |  |  |  |
| CN(C)S(=O)(=O)c1cc(Cl)ccc1Cl | Non-Toxic | Non-Toxic | Non-Toxic |  |  |  |
| CN(C)S(=O)(=O)c1ccccc1 | Non-Toxic | Non-Toxic | Non-Toxic | Active |  |  |
| CC1(C)O[C@@H]2[C@@H](CO[C@@]3(COS(N)(=O)=O)OC(C)(C)O[C@@H]23)O1 [TOPIRAMATE] |  |  |  |  |  | ED50 (Mus musculus [5]): 33 mg/kg; ED50 (Mus musculus [6]): > 800 mg/kg |
| NS(=O)(=O)Cc1noc2ccccc12 [ZONISAMIDE] |  |  |  |  |  | ED50 (Mus musculus [5]): 20 mg/kg; ED50 (Mus musculus [6]): > 500 mg/kg |
| NS(=O)(=O)c1cccc(Cl)c1 | Non-Toxic | Non-Toxic | Non-Toxic | Active | Active | Activity (Mus musculus [7]): Active |
| CN(C)S(=O)(=O)c1cc(Cl)cc(Cl)c1 | Non-Toxic | Non-Toxic | Non-Toxic | Active |  |  |
| O=S(=O)(c1cccc(Cl)c1)N1CCCC1 | Non-Toxic | Non-Toxic | Non-Toxic |  |  |  |
| CN(C)S(=O)(=O)c1cccc([N+](=O)[O-])c1 | Non-Toxic | Non-Toxic | Non-Toxic | Active |  |  |
| CN(C)S(=O)(=O)c1cccc(OC(F)(F)F)c1 | Non-Toxic | Non-Toxic | Non-Toxic | Active |  |  |
| CN(CCO)S(=O)(=O)c1cccc(Cl)c1 | Non-Toxic | Non-Toxic | Non-Toxic |  |  |  |
| CN(C)S(=O)(=O)c1ccc(Cl)c(Cl)c1 | Non-Toxic | Non-Toxic | Non-Toxic | Active |  |  |
| CN(C)S(=O)(=O)c1cccc(Cl)c1 | Non-Toxic | Non-Toxic | Non-Toxic | Active | Active | ED50 (Mus musculus [5]): 12 mg/kg; Activity (Mus musculus [9]): Active; Activity (Mus musculus [10]): Active; Activity (Mus musculus [7]): Active; ED50 (Mus musculus [6]): 34 mg/kg; remaining at 0.5 h [11]: 95% |
| CCCN(C)S(=O)(=O)c1cccc(Cl)c1 | Non-Toxic | Non-Toxic | Non-Toxic |  |  |  |
| CN(C)S(=O)(=O)c1cccc(C(F)(F)F)c1 | Non-Toxic | Non-Toxic | Non-Toxic | Active |  | Activity (Mus musculus [9]): Active |
| COc1cccc(S(=O)(=O)N(C)C)c1 | Non-Toxic | Non-Toxic | Non-Toxic |  |  |  |
| CNS(=O)(=O)Cc1cccc(Cl)c1 | Non-Toxic | Non-Toxic | Non-Toxic |  |  |  |
| CN(C)S(=O)(=O)c1ccc(Cl)cc1 | Non-Toxic | Non-Toxic | Non-Toxic | Active | Active | Activity (Mus musculus [10]): Active; Activity (Mus musculus [7]): Active |
| CNS(=O)(=O)c1cccc(Cl)c1 | Non-Toxic | Non-Toxic | Non-Toxic | Active | Active | Activity (Mus musculus [10]): Active; Activity (Mus musculus [7]): Active |
| CCN(CC)S(=O)(=O)c1cccc(Cl)c1 | Non-Toxic | Non-Toxic | Non-Toxic | Active | Active | Activity (Mus musculus [10]): Active |
| CCNC(=O)C1=C(Cl)c2ccccc2S(=O)(=O)N1C |  |  |  |  |  | Activity (Mus musculus [12]): Active |
| CN(C)S(=O)(=O)c1cccc(F)c1 | Non-Toxic | Non-Toxic | Non-Toxic | Active | Active | Activity (Mus musculus [9]): Active; Activity (Mus musculus [7]): Active |
| CN(C)S(=O)(=O)c1ccccc1Cl | Non-Toxic | Non-Toxic | Non-Toxic | Active | Active | Activity (Mus musculus [10]): Active; Activity (Mus musculus [13]): Active; Activity (Mus musculus [14]): Active |
| CN(C)S(=O)(=O)c1cccc(C#N)c1 | Non-Toxic | Non-Toxic | Non-Toxic | Active | Active |  |
| CN(C)S(=O)(=O)c1cccc(Oc2ccccc2)c1 | Non-Toxic | Non-Toxic | Non-Toxic |  |  |  |
| CN(C)S(=O)(=O)c1cccc(N)c1 | Non-Toxic | Non-Toxic | Non-Toxic |  |  |  |
| CN(C)S(=O)(=O)c1cccc(Br)c1 | Non-Toxic | Non-Toxic | Non-Toxic | Active | Active |  |
